Read-outs that look alike come from different tables or passages of the source.
Test system: T1, Bacillus GDH
T1 construct: commercial enzyme from GDH activity colorimetric assay kit (Biovision)
Assay: WST-8/1-mPMS formazan assay, […] nm, Michaelis-Menten fit
Format: biochemical
Details: 20 mM Tris-HCl pH 9.0, 37 °C

Row | Km (1 mM NAD+, read-out: KM (mM) / Glucose) | Km (250 mM glucose, read-out: KM (mM) / NAD^+) | SMILES
1 | 17.1 ± 2 mM | – | OC[C@H]1OC(O)[C@H](O)[C@@H](O)[C@@H]1O (stereo partly drawn) [D-(+)-glucose]
2 | – | 0.271 ± 0.027 mM | NC(=O)c1ccc[n+]([C@@H]2O[C@H](COP(=O)(O)OP(=O)(O)OC[C@H]3O[C@@H](n4cnc5c(N)ncnc54)[C@H](O)[C@@H]3O)[C@@H](O)[C@H]2O)c1 [NAD^+]
